Data as given in patent US11091428B2 (HAPLOGEN GMBH, priority 2016, dated 2021).
pEC50, pIC50: −log10 of the molar value. Read-outs that look alike come from different tables or passages of the source.

Assays:
PLA2G16 = target: T1, PLA2G16 (Homo sapiens, UniProt P53816); test: Enzyme activity assay for PLA2G16 (Red/Green BODIPY PC-A2 fluorescence); type: biochemical; details: His-tagged PLA2G16, 4 min pre-incubation, 2 nM to 50 μM; read-out: IC50 values of the compounds determined in the enzyme activity assay for PLA2G16
T1 construct: Hexa-His (N); made in house; host or cells: E. coli BL21(DE3)
T1 sequence (P53816 1-162): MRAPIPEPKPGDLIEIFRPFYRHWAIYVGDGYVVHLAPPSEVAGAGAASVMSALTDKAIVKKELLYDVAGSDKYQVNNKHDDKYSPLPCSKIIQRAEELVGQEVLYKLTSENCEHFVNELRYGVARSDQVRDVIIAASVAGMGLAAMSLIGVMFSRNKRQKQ
Text: A cDNA for PLA2G16(NM_007069) was custom-synthesized by Genscript (Piscataway, USA) and inserted into a pET-based bacterial expression vector [Moffatt, B. A. and Studier, F. W. (1986) J. Mol. Biol. 189, 113-130; Rosenberg, A. H., Lade, B. N., Chui, D., Lin, S., Dunn, J. J., and Studier, F. W. (1987) Gene 56, 125-135], enabling the expression of N-terminally Hexa-His-tagged PLA2G16. E. coli BL21(DE3) (Agilent) were transformed with pET-His-PLA2G16according to the manufacturer's instructions and plated on Carbenicillin-containing agar plates (final concentration: 100 μg/mL). A single clone was in occulated in 100 mL LB medium supplemented with 100 μg/mL Carbenicillin and the in occulated culture was grown at 37° C. overnight in a rotary shaker. On the next day, the bacterial culture was diluted in LB medium supplemented with 100 μg/mL Carbenicillin (30 mL overnight culture in 800 mL total culture volume). Bacteria were grown at 37° C. until the OD600 reached 0.6. Gene expression was induced by addition of 1 mM isopropyl-β-D-thiogalactopyranosid (IPTG) for 2 h at 18° C. Subsequently, bacteria were harvested by centrifugation (15 min; 10,000×g; 4° C.) and frozen at −80° C. The bacterial pellet was resuspended in Buffer A (50 mM Tris/HCl pH 7.5, 500 mM NaCl, 5% glycerol, 5 mM β-Mercaptoethanol and 1 mM PMSF) and lysed by addition of 1 mg/mL lysozyme (Sigma Aldrich) and 100 μg/mL DNasel-(Roche). The sample was incubated at 30° C. for 30 min to allow lysis to occur. Then, the lysate was cleared by centrifugation (15,000×g, 15 min, 4° C.) and incubated with 1.5 mL Ni-NTA agarose suspension (Qiagen) for 60 min at 4° C. The Ni-NTA agarose was washed with 10 mL Buffer A. Bound protein was eluted by applying a manual gradient of Buffer A supplemented with increasing concentrations of imidazole (Sigma Aldrich; 25/50/75/100/250 mM). Purified fractions were analyzed by SDS-PAGE followed by Coomassie staining to assess the purity.
Activity of the protein was assessed as follows: Red/Green BODIPY® PC-A2 (Invitrogen, 1 mM in DMSO) was mixed with equal volumes of 1,2-Dioleoyl-sn-glycero-3-phosphocholine (DOPC; Sigma Aldrich, 10 mM in Ethanol) and 1,2-Dioleoyl-sn-glycero-3-phospho-rac-(1-glycerol) (DOPG; Sigma Aldrich, 10 mM in Ethanol) and 0.5 volumes of Cholesterol (CHOL; Sigma Aldrich, 10 mM in Ethanol) and vortexed for 5 s. The mixture (Red/Green BODIPY® PC-A2/DOPC/DOPG/CHOL) was diluted 1:91.4 in activity assay buffer (50 mM Tris/HCl pH 8.5, 100 mM NaCl) using a small-orifice pipette tip under constant vortexing. In the following, this preparation will be referred to as the “substrate solution”.
In order to evaluate their inhibitory potential, compounds were dissolved at 10 mM concentration in DMSO and directly spotted into assay plates (Corning, Cat. No. 3576) using acoustic liquid transfer (Labcyte Echo 525). Each compound was spotted at increasing concentrations, ranging from 2 nM to 50 μM (concentration in the final assay volume). 50 μl of PLA2G16 enzyme solution (diluted in activity buffer, supplemented with 5 mM L-Glutathione; Sigma Aldrich) was pre-incubated with compounds for 4 min., followed by addition of 50 μl of substrate solution. Fluorescence was recorded immediately after substrate addition for a total time of 10 min. using a SpectraMax M5 multimode reader (Excitation wavelength: 480 nm, emission wavelength: 530 nm). The relative increase of fluorescence over time is referred to as the enzyme activity. Half-maximal inhibitory concentrations (IC50) were derived by non-linear regression analysis using the drc package in R (R Development. Core Team, 2005).

[1] = test system: picornaviruses (CVB1, HRV-A2, HRV-A23, EV-68); test: Anti-picornavirus cytopathic effect (CPE) reduction assay on HeLa H1 cells; type: cell-based; details: Enterovirus B, HeLa H1, 48 h
Protocol: The antiviral activity of selected compounds was tested using a cytopathic effect (CPE) reduction assay on HeLa H1 cells (ATCC CRL-1958). Briefly, cells were seeded in 96-well dishes (2×10^4 cells/well) in DMEM medium (Life technologies) supplemented with 10% FBS and PenStrep solution (100 U/mL Penicillin and 100 μg/mL streptomycin) and incubated at 37° C., 5% CO2 ovemight. The next day, cells were pre-treated with serial dilutions of the compound in DMEM medium supplemented with 2% FBS and PenStrep for 2 h at 37° C., 5% CO2. Next, cells were infected with virus (CVB1, HRV-A2, HRV-A23, EV-68) at an multiplicity of infection (MOI) which results in a complete virus-induced CPE within 2 days in control wells (infected and vehicle-treated). After 48 h, supematants were aspirated and 50 μl/well of CellTiterBlue reagent (Promega) diluted 1:5 in DMEM+2% FBS, was added to the cells. Plates were returned to the incubator and allowed to develop for 1.5 h. After that, plates were equilibrated to RT and subsequently, fluorescence was recorded (Excitation wavelength: 560 nm; emission wavelength: 590 nm) using a SpectraMax M5 multimode plate reader. Viability of cells was calculated according to the formula: V=(RFUCpd−RFUVeh/(RFUM−RFUVeh), where RFUCpd refers to infected and compound-treated cells, RFUVeh to infected and vehicle-treated cells and RFUM to uninfected and vehicle treated cells. Half-maximal effective concentrations (EC50) were calculated by non-linear regression analysis using the drc package in R (R Development. Core Team, 2005). EC50 categories as presented in Table 2 were calculated by averaging the EC50 values from four picornaviruses (CVB1, HRV-A2, HRV-A23, EV68).

[2] = HeLa H1 cells, 48 h, category from averaging the EC50 values from four picornaviruses (CVB1, HRV-A2, HRV-A23, EV68), read-out: EC50 values of the compounds determined in the anti-picornavirus assay
[3] = read-out: EC50 values of the compounds determined in the anti-picornavirus assay, HeLa H1 cells, 48 h, category from averaging the EC50 values from four picornaviruses (CVB1, HRV-A2, HRV-A23, EV68)

Work on `CC(C(=O)C(=O)NCC1CCCCC1)N(C=O)C1CCCCC1` (stereo not drawn) [FP 52, 3-(N-Cyclohexylformamido)-N-(cyclohexylmethyl)-2-oxobutanamide] yielded a pIC50 (PLA2G16) greater than 6.00 and a pEC50 [1, 2] greater than 6.00.
`COc1ccccc1N(C=O)C(C)C(=O)C(=O)NCc1ccc(Cl)cc1` (stereo not drawn) [FP 91, N-[(4-Chlorophenyl)methyl]-3-[N-(2-methoxyphenyl)formamido]-2-oxobutanamide] was tested, and the pIC50 (PLA2G16) was greater than 6.00 and the pEC50 [1, 2] was greater than 6.00.
`CC(C(=O)C(=O)NCC1CCCCC1)N(C=O)CC(F)(F)F` (stereo not drawn) [FP 50, N-(Cyclohexylmethyl)-2-oxo-3-[N-(2,2,2-trifluoroethyl)formamido]butanamide] showed a pIC50 (PLA2G16) greater than 6.00 and a pEC50 [1, 2] greater than 6.00.
Work on `CCC(NC(=O)c1ccccc1)C(=O)C(=O)NC1CC1` (stereo not drawn) [FP 183, N-Cyclopropyl-2-oxo-3-(phenylformamido)pentanamide] yielded a pIC50 (PLA2G16) of 5.00 to 6.00 and a pEC50 [1, 2] of less than 5.00.
With `CCNC(=O)C(=O)[C@H]1CCC(=O)N1Cc1ccc(Cl)cc1` [FP 285, 2-[(2R)-1-[(4-Chlorophenyl)methyl]-5-oxopyrrolidin-2-yl]-N-ethyl-2-oxoacetamide] the pIC50 (PLA2G16) was greater than 6.00 and the pEC50 [1, 2] was greater than 6.00.
For `CC(NC(=O)C1CCN(CC(F)(F)F)CC1)C(=O)C(=O)NCC1CCCCC1` (stereo not drawn) [FP 206, N-(Cyclohexylmethyl)-2-oxo-3-{[1-(2,2,2-trifluoroethyl)piperidin-4-yl]formamido}-butanamide], the pIC50 (PLA2G16) was greater than 6.00 and the pEC50 [1, 2] was 5.00 to 6.00.
In the case of `CC(C)OCCCNC(=O)C(=O)[C@H]1CCC(=O)N1Cc1ccccc1` [FP 301, 2-[(2R)-1-Benzyl-5-oxopyrrolidin-2-yl]-2-oxo-N-[3-(propan-2-yloxy)propyl]acetamide], the pIC50 (PLA2G16) was greater than 6.00 and the pEC50 [1, 2] was greater than 6.00.
`CC(C)CC(C(=O)C(=O)NCC1CC1)N(C=O)CC1CCCO1` (stereo not drawn) [FP 74, N-(Cyclopropylmethyl)-5-methyl-2-oxo-3-{N[(oxolan-2-yl)methyl]formamido} hexanamide] was tested, and the pIC50 (PLA2G16) was greater than 6.00 and the pEC50 [1, 2] was 5.00 to 6.00.
`CC(NS(=O)(=O)c1ccccc1)C(=O)C(=O)NCC1CC1` (stereo not drawn) [FP 187, 3-Benzenesulfonamido-N-(cyclopropylmethyl)-2-oxobutanamide] was tested, and the pIC50 (PLA2G16) was greater than 6.00 and the pEC50 [1, 2] was 5.00 to 6.00.
`CC(C)C(=O)N(C)C(C)C(=O)C(=O)NCC1CC1` (stereo not drawn) [FP 151, N-(Cyclopropylmethyl)-3-(N,2-dimethylpropanamido)-2-oxobutanamide] was tested, and the pIC50 (PLA2G16) was 5.00 to 6.00 and the pEC50 [1, 2] was less than 5.00.
`CC(NS(=O)(=O)c1ccccc1)C(=O)C(=O)NCC1CCCCC1` (stereo not drawn) [FP 218, 3-Benzenesulfonamido-N-(cyclohexylmethyl)-2-oxobutanamide] was tested, and the pIC50 (PLA2G16) was greater than 6.00 and the pEC50 [1, 2] was 5.00 to 6.00.
`CC(C(=O)C(=O)NCC1CCCCC1)N(C=O)CC1CCN(C(=O)OC(C)(C)C)CC1` (stereo not drawn) [FP 53, tert-Butyl 4-[(N-{1-[(cyclohexylmethyl)carbamoyl]-1-oxopropan-2-yl}formamido)-methyl]piperidine-1-carboxylate] showed a pIC50 (PLA2G16) greater than 6.00 and a pEC50 [1, 2] of 5.00 to 6.00.
With `CC(NC(=O)C1CCCCC1)C(=O)C(=O)NCC1CC1` (stereo not drawn) [FP 161, 3-(Cyclohexylformamido)-N-(cyclopropylmethyl)-2-oxobutanamide] the pIC50 (PLA2G16) was greater than 6.00 and the pEC50 [1, 2] was less than 5.00.
Compound `CC(C)S(=O)(=O)N1CCC(NC(=O)C(=O)[C@H]2CCC(=O)N2Cc2ccccc2)CC1` [FP 323, 2-[(2R)-1-Benzyl-5-oxopyrrolidin-2-yl]-2-oxo-N-[1-(propane-2-sulfonyl)piperidin-4-yl]acetamide] has a pIC50 (PLA2G16) greater than 6.00 and a pEC50 [1, 2] greater than 6.00.
Work on `CCCC(C(=O)C(=O)NCC1CC1)N(C=O)CC1CCOCC1` (stereo not drawn) [FP 58, N-(Cyclopropylmethyl)-3-{N-[(oxan-4-yl)methyl]formamido}-2-oxohexanamide] yielded a pIC50 (PLA2G16) greater than 6.00 and a pEC50 [1, 2] of 5.00 to 6.00.
With `CC(C)[C@@H](C(=O)C(=O)NCC1CC1)N(C=O)CC(C)(C)C` (single isomer, unassigned) [FP 33] the pIC50 (PLA2G16) was greater than 6.00 and the pEC50 [1, 2] was 5.00 to 6.00.
`CC(C(=O)C(=O)NCC(F)F)N(C=O)C1CCCCC1` (stereo not drawn) [FP 111, 3-(N-Cyclohexylformamido)-N-(2,2-difluoroethyl)-2-oxobutanamide] was tested, and the pIC50 (PLA2G16) was greater than 6.00 and the pEC50 [1, 2] was less than 5.00.
In the case of `O=CN(Cc1ccccc1)C(C(=O)C(=O)NCC1CC1)C1CCOCC1` (stereo not drawn) [FP 71, 3-(N-Benzylformamido)-N-(cyclopropylmethyl)-3-(oxan-4-yl)-2-oxopropanamide], the pIC50 (PLA2G16) was greater than 6.00 and the pEC50 [1, 2] was 5.00 to 6.00.
With `O=C(NCC1CC1)C(=O)[C@@H]1CCC(=O)N1Cc1ccccc1` [FP 225, 2-[(2S)-1-Benzyl-5-oxopyrrolidin-2-yl]-N-(cyclopropylmethyl)-2-oxoacetamide] the pEC50 [1, 3] was less than 5.00.
`CC(OCC1CCCCC1)C(=O)C(=O)NCC1CC1` (stereo not drawn) [FP 123, 3-(Cyclohexylmethoxy)-N-(cyclopropylmethyl)-2-oxobutanamide] showed a pEC50 [1, 3] of 5.00 to 6.00.
Compound `CC(C(=O)C(=O)NCc1cccc(Cl)c1)N(C=O)Cc1ccccc1` (stereo not drawn) [FP 20, 3-(N-Benzylformamido)-N-[(3-chlorophenyl)methyl]-2-oxobutanamide] has a pIC50 (PLA2G16) greater than 6.00.
`COc1ccccc1N1C(=O)CC[C@H]1C(=O)C(=O)NCC1CC1` [FP 140, N-(cyclopropylmethyl)-2-[(2S)-1-(2-methoxyphenyl)-5-oxopyrrolidin-2-yl]-2-oxoacetamide] gave a pIC50 (PLA2G16) of 4.30 to 5.00.
`CC(C(=O)C(=O)NCC1CCCCC1)N1CCCCC1=O` (stereo not drawn) [FP 186, N-(Cyclohexylmethyl)-2-oxo-3-(2-oxopiperidin-1-yl)butanamide] gave a pIC50 (PLA2G16) of 4.30 to 5.00.
`COc1ccccc1N(C=O)C(C)C(=O)C(=O)NCc1cc(Cl)cc(Cl)c1` (stereo not drawn) [FP 83, N-[(3,5-Dichlorophenyl)methyl]-3-[N-(2-methoxyphenyl)formamido]-2-oxobutanamide] was tested, and the pIC50 (PLA2G16) was greater than 6.00.
